Patent publication US11319289B2, “5-hydroxy pyridine-based compound for use as P2X1 and P2X3 receptor antagonist and pharmaceutical composition comprising same” (GWANGJU INSTITUTE OF SCIENCE AND TECHNOLOGY, priority 2017, dated 2022)
Like-named read-outs stand apart in the source and are kept apart here.

Tests used:
[1] = Plasma and brain concentrations after intravenous administration of Compound 28 in rats; assay type: in vivo, SD rats; conditions: for concentration in the brain tissue: 0.5 hour after intravenous administration of Compound 28; for Kp / concentration at 0.5 h / concentration at 2 h / concentration at 4 h / concentration at 8 h / Kp at 0.5 h / Kp at 2 h / Kp at 4 h / Kp at 8 h: male, rat, iv; for Kp: SD, 5 mg/kg, after i.v. Compound 28, over the time points of Table 6, read-out: brain to plasma ratio; for Kp / Kp at 0.5 h / Kp at 2 h / Kp at 4 h / Kp at 8 h: brain/plasma; for concentration at 0.5 h / Kp at 0.5 h: 0.5 hr after i.v. Compound 28 5 mg/kg; for concentration at 0.5 h / concentration at 2 h / concentration at 4 h / concentration at 8 h / Kp at 0.5 h / Kp at 2 h / Kp at 4 h / Kp at 8 h: rats, mean±SD; for concentration at 2 h / Kp at 2 h: 2 hr after i.v. Compound 28 5 mg/kg; for concentration at 4 h / Kp at 4 h: 4 hr after i.v. Compound 28 5 mg/kg; for concentration at 8 h / Kp at 8 h: 8 hr after i.v. Compound 28 5 mg/kg; for Kp at 0.5 h / Kp at 2 h / Kp at 4 h / Kp at 8 h: read-out: Brain to plasma ratio
Description: 7 to 8-weeks old male SD rats (weight of 250 to 290 g) were purchased from SAMTACO (Osan, […], South Korea) and given commercial rat feed (SAMTACO, Osan, Kyungki-Do, South Korea) and water to be consumed freely. 3 rats were housed per each cage at a temperature of 23±2° C. and a relative humidity of 50 to 60% under light-darkness cycles of 12±12 hours. The rats were allowed to acclimate to these conditions for at least one week before the experiments was carried out. The rats were fasted for 12 hours before the experiment and given the tap water to be consumed freely. Compound 28 was administered to the caudal vein at a dose of 5 mg/kg. At 0.5, 2, 4 and 8 hours after intravenous administration, each animal was sacrificed by cervical dislocation. Blood samples were centrifuged at 12,000 rpm for 5 minutes and immediately stored at […] until analysis. After collecting the blood samples, the brains were harvested. Then, the brain tissues were accurately weighed and homogenized with 4-fold volumes of distilled water (IKA T10 basic homogenizer, IKA, Staufen, Germany). The homogenized brain samples were centrifuged at 12,000 rpm for 10 minutes and stored at −20° C. until analysis of 500 μl aliquots. Quantification of the samples was performed using an LC-MS/MS system. The HPLC system is composed of an Agilent 1290 series rapid resolution LC system that includes a binary pump (model: G4220A), an autosampler (model: G4226A) and a column oven (model: G1316C). Mass spectrometer analysis was performed using a Sciex 4000 Q-Trap® mass spectrometer (Applied Biosystems Sciex, Toronto, Ontario, Canada) equipped with an electrospray ionization source. Data acquisition and quantification were performed using the Analyst software version 1.6 from AB SCIEX, and chromatographic separations were performed using Gemini NX C18 (2.0×100 mm, 3 μm, Phenomenex, USA). The mobile phase consisted of ACN (0.1% formic acid) and water (0.1% formic acid) (50:50, v/v). The flow rate was 0.25 mL/min, and the injection volume was set at 5 μL. Mass spectrometry was optimized and performed using a multiple reaction monitoring (MRM) scan in cation mode. The m/z transition was set from 392.1 to 360.2 for Compound 28 and from 378.2 to 360.2 for Compound 29. Preparation of plasma and brain homogenous samples includes protein precipitation with acetonitrile. In 1.5 mL polyethylene microtubes, 5 μL of IS (cimetidine, 10 μg/ml) was added to 50 μL of plasma or tissue homogenate. Subsequently, 150 μl of acetonitrile (extraction solvent) was added to the tube. After vortexing for 30 seconds, the mixture was centrifuged for 5 minutes at 12,000 rpm. 10 μl of supernatant was injected directly into the HPLC column.

[2] = Metabolic stability in microsomes, rat; assay type: in vitro ADME; conditions: for Metabolic stability, microsomes, Rat: 30 min
Description: Metabolic stability of the compounds was evaluated in rat liver microsomes (RLM). Microsomes (0.5 mg/ml) and test compound (1 μM) in 100 mM potassium phosphate buffer (pH 7.4) were preincubated by shaking at 37° C. for 5 min (100 rpm). Metabolic reactions were initiated by adding an NADPH production system (60 mM potassium phosphate buffer at pH 7.4, 1.3 mM NADP, 3.3 mM glucose-6-phosphate, 0.3 μL glucose-6-phosphate dehydrogenase (0.4 U/mL), and 3.3 mM magnesium chloride) and incubating at 37° C. 100 μL aliquots were recovered at 0, 10, 20, 30 and 60 minutes, and the reaction was terminated by the addition of two volumes of ice-cold acetonitrile (ACN). After mixing by vortex and centrifugation (14000 rpm) for 15 minutes at 4° C., the supernatant was transferred to liquid chromatography vials and analyzed by an LC-MS/MS system.

[3] = Plasma protein binding by rapid equilibrium dialysis, rat; assay type: in vitro ADME; conditions: plasma (50% in PBS), pH 7.4, read-out: Plasma protein binding rate, Rat (converted)
Description: Plasma protein binding was measured by rapid equilibrium dialysis (RED). A DMSO stock solution of the compounds was prepared at a concentration of 10 mM and diluted to a concentration of […] with 50% plasma in phosphate buffered saline (PBS, pH 7.4). Plasma samples (100 μL) and PBS (300 μL) were added to the sample chamber and the buffer chamber, respectively, after which the RED device was turn on and the samples were incubated in a shaking incubator at 37° C. for 4 hours. After dialysis, 50 μl aliquots were collected from each side of the chamber. 50 μl of blank plasma was added to the buffer sample, and 50 μl of PBS was also added to the plasma sample. 200 μL of acetonitrile containing an internal standard was added to each sample. The samples were centrifuged at 3200 g for 20 minutes at 4° C., and the supernatants were obtained and analyzed by an LC-MS/MS system. The plasma protein binding rate was calculated as follows: Free form (%)=(Buffer chamber/Plasma chamber)×100 Bound form (%)=100−Free form (%).

rats = assay: Behavioral test (righting, placing-stepping, pinna and corneal reflexes); assay type: in vivo, rat; conditions: maximum dose, intrathecal or intravenous administration
Description: 4-1. Behavioral Efficacy Test Method
Additional rats received the highest doses of drugs used to evaluate behavioral changes at 5, 10, 20, 30, 40, 50, and 60 min after intrathecal or intravenous administration to caudal vein. Motor functions were examined using the righting and placing-stepping reflexes. The righting reflex was evaluated by an immediate coordinated twisting of the body to an upright position when placing the rat horizontally with its back on the table. The placing-stepping reflex was induced by drawing the dorsum of hind paw across the edge of the table. Rats normally attempt to put their paws forward into a position for walking. Pinna and corneal reflexes were also assessed and judged as present or absent. Other abnormal behaviors, such as serpentine movement or tremors, were also evaluated.

[4] = brain, read-out: Brain concentration
[5] = plasma, read-out: Plasma concentration

SMILES | concentration in the brain tissue [1] [μg/g tissue] | Kp [1] | concentration at 0.5 h [1, 4] [ng/g] | concentration at 2 h [1, 4] [ng/g] | concentration at 4 h [1, 4] [ng/g] | concentration at 8 h [1, 4] [ng/g] | Kp at 0.5 h [1] | Kp at 2 h [1] | Kp at 4 h [1] | Kp at 8 h [1] | concentration at 0.5 h [1, 5] [ng/mL] | concentration at 2 h [1, 5] [ng/mL] | concentration at 4 h [1, 5] [ng/mL] | concentration at 8 h [1, 5] [ng/mL] | Metabolic stability, microsomes, Rat [2] [% remaining after 30 min] | fraction unbound at 4 h, 5 µM [3] | abnormal behavior changes (rats) | pinna and corneal reflexes (rats) | righting and position-stepping reflexes (rats) | also measured
CCCc1nc(Cc2cccc(Oc3ccccc3)c2)c(C)c(C(=O)OC)c1O [Compound 28, Methyl 3-hydroxy-5-methyl-6-(3-phenoxybenzyl)-2-propylisonicotinate] | 1.11 | 1.13 to 1.79 | 1110 ± 360 | 90 ± 10 | 50 ± 10 | 30 ± 10 | 1.79 ± 0.44 | 1.13 ± 0.25 | 0.94 ± 0.21 | 1.19 ± 0.41 | 620 ± 140 | 80 ± 20 | 60 ± 10 | 20 ± 10 | 33 | 0.675 | no obvious abnormal behavior changes were observed | present | normal | brain concentration of Compound 28 relative to Compound 29 ([1]; 0.5 hour after i.v. Compound 28): 50 times
CCCc1nc(Cc2cccc(Oc3ccccc3)c2)c(C)c(C(=O)O)c1O [Compound 29, 3-Hydroxy-5-methyl-6-(3-phenoxybenzyl)-2-propylisonicotinic acid] | 0.022 | < 0.25 | 22 ± 3 | 2 ± 1 | 1 | 1 ± 1 | 0.24 ± 0.13 | 0.08 ± 0.02 | 0.05 ± 0.03 | 0.1 ± 0.12 | 110 ± 50 | 30 | 20 ± 10 | 10 | 0 | 0.002 | no obvious abnormal behavior changes were observed | present | normal | metabolic stability ([2]; after 30 minutes, species not given): < 5%
